Assay results taken from publication PMC8860572 (Nucleic Acids Research, 2022).
“Also recorded” adds a separate entry of the source. Read-outs that look alike come from different tables or passages of the source.

Key:
[1] = molecular target: SARS-CoV-2 nsp14–nsp10 complex (nuclease activity) (Severe acute respiratory syndrome coronavirus 2, UniProt P0DTD1); test: biochemical; conditions: for inhibition of substrate digestion in gel-based assay: 100 nM nsp14–nsp10, compound up to 100 μM; for IC50 / IC50 value: 100 nM nsp14–nsp10, 10 nM 20-mer ssRNA, 37°C 45 min, approximate/preliminary
nsp14–nsp10 = nsp14–nsp10 (Severe acute respiratory syndrome coronavirus 2, UniProt P0DTD1); format: binding, SARS-CoV-2; conditions: for ΔTm: 1 µM nsp14-10; for effect on thermal stability / aggregation of nsp14–nsp10 (words): 3.1-100 µM compound
[2] = molecular target: nsp14–nsp10 co-incubated with nsp8 (Severe acute respiratory syndrome coronavirus 2, UniProt P0DTD1); test: gel-based nuclease inhibition assay with nsp8 stimulation; format: biochemical, SARS-CoV-2; conditions: 100 nM nsp14-nsp10 and 300 nM nsp8, compound 3-100 μM
[3] = molecular target: guanine N7 methyl transferase (MTase) activity of nsp14–nsp10 (Severe acute respiratory syndrome coronavirus 2, UniProt P0DTD1); test: HTRF methyltransferase assay; format: biochemical, SARS-CoV-2; conditions: 2.5, 5 and 10 μM compound; 10 nM nsp14-nsp10, 5 μM SAM, 0.14 mM GP3G
[4] = molecular target: SARS-CoV-2 nsp14–nsp10 RNase activity (Severe acute respiratory syndrome coronavirus 2, UniProt P0DTD1); format: biochemical
SARS-CoV-2 = conditions: cited from earlier work
[5] = Supplementary Table 2, in vitro inhibition of nsp14-nsp10 nuclease activity, result in words
[6] = 125 nM (ions) or 250 nM (chelators) nsp14-nsp10, ions 0.05-10 mM, chelators 0.03-1 mM

For `COc1ccc2c3c(cccc13)C(=O)N(O)C2=O` [A-1], the “inhibition of substrate digestion in gel-based assay” value [1] was “qualitatively complete inhibition of substrate digestion”, the ΔTm (nsp14–nsp10; 3.1 µM compound) was 0.02 °C and the ΔTm (nsp14–nsp10; 6.3 µM compound) was 0.31 °C. For the same compound, the ΔTm (nsp14–nsp10; 12.5 µM compound) was 0.25 °C, the ΔTm (nsp14–nsp10; 25 µM compound) was 0.17 °C and the ΔTm (nsp14–nsp10; 50 µM compound) was 0.29 °C. For the same compound, the ΔTm (nsp14–nsp10; 100 µM compound) was 0.60 °C.

For `COc1cc2c3c(cccc3c1)C(=O)N(O)C2=O` [A-2], the IC50 [1] was 20.7 ± 0.5 µM, the “inhibition of substrate digestion in gel-based assay” value [1] was “qualitatively complete inhibition of substrate digestion” and the Level of inhibition [1, 5] was “Yes”. The “inhibition of nuclease activity in presence of nsp8” value (“inhibition of nuclease activity” for short) [2] was “inhibition was still observed, albeit at higher inhibitor concentrations”, the ΔTm (nsp14–nsp10; 3.1 µM compound) was 0.01 °C and the ΔTm (nsp14–nsp10; 6.3 µM compound) was 0.26 °C. It also gave a ΔTm (nsp14–nsp10; 12.5 µM compound) of 0.22 °C, a ΔTm (nsp14–nsp10; 25 µM compound) of 0.21 °C and a ΔTm (nsp14–nsp10; 50 µM compound) of 0.36 °C. The “MTase inhibition” value [3] was “demonstrated MTase inhibition activity”.

In the case of `O=c1[nH]c2ccccc2c(=O)n1O` [A-3], the ΔTm (nsp14–nsp10; 3.1 µM compound) is reported as -0.10 °C, the ΔTm (nsp14–nsp10; 6.3 µM compound) is reported as 0.13 °C and the ΔTm (nsp14–nsp10; 12.5 µM compound) is reported as 0.31 °C. For the same compound, the ΔTm (nsp14–nsp10; 25 µM compound) was 1.33 °C and the ΔTm (nsp14–nsp10; 50 µM compound) was 0.36 °C.

For `O=c1c2ccccc2n(Cc2ccccc2)c(=O)n1O` [A-4], the IC50 [1] was 94.1 ± 27 µM, the Level of inhibition [1, 5] was “Yes” and the ΔTm (nsp14–nsp10; 3.1 µM compound) was -0.06 °C. It also gave a ΔTm (nsp14–nsp10; 6.3 µM compound) of 0.11 °C, a ΔTm (nsp14–nsp10; 12.5 µM compound) of 0.27 °C and a ΔTm (nsp14–nsp10; 25 µM compound) of -1.33 °C. The ΔTm (nsp14–nsp10; 50 µM compound) was 0.35 °C and the ΔTm (nsp14–nsp10; 100 µM compound) was 0.62 °C.

In the case of `O=c1c2ccccc2[nH]c(=S)n1O` [A-5, 3-Hydroxy-2-thioxo-2,3-dihydroquinazolin-4-one], the IC50 value [1] is reported as “incomplete inhibition”, the ΔTm (nsp14–nsp10; 3.1 µM compound) is reported as 0.00 °C and the ΔTm (nsp14–nsp10; 6.3 µM compound) is reported as 0.24 °C. For the same compound, the ΔTm (nsp14–nsp10; 12.5 µM compound) was 0.19 °C, the ΔTm (nsp14–nsp10; 25 µM compound) was 0.00 °C and the ΔTm (nsp14–nsp10; 50 µM compound) was 0.38 °C. It also gave a ΔTm (nsp14–nsp10; 100 µM compound) of 0.61 °C.

With `O=C(O)C1=CC(=C(c2ccc(O)c(C(=O)O)c2)c2ccc(O)c(C(=O)O)c2)C=CC1=O` [ATA, Aurintricarboxylic acid, reference compound] the Level of inhibition [1, 5] was “Yes”, the ΔTm (nsp14–nsp10; 3.1 µM compound) was 0.33 °C and the ΔTm (nsp14–nsp10; 6.3 µM compound) was 0.27 °C. For the same compound, the ΔTm (nsp14–nsp10; 12.5 µM compound) was 0.85 °C, the ΔTm (nsp14–nsp10; 25 µM compound) was 3.08 °C and the “effect on thermal stability / aggregation of nsp14–nsp10 (words)” value (nsp14–nsp10) was “destabilizing effect on thermal stability of nsp14–nsp10”. For the same compound, the “effect on thermal stability / aggregation of nsp14–nsp10 (words)” value (nsp14–nsp10; listed as aurintricarboxylic acid) was “appears to aggregate the protein at high concentration”.

For `O=C(O)c1nc(-c2ccccc2)nc(O)c1O` [B-1, 5,6-Dihydroxyl-2-phenylpyrimidine-4-carboxylic acid], the IC50 [1] was 32.2 ± 4.5 µM, the Level of inhibition [1, 5] was “Yes” and the “inhibition of nuclease activity” value [2] was “inhibition was still observed, albeit at higher inhibitor concentrations”. It also gave a ΔTm (nsp14–nsp10; 3.1 µM compound) of -0.15 °C, a ΔTm (nsp14–nsp10; 6.3 µM compound) of 0.02 °C and a ΔTm (nsp14–nsp10; 12.5 µM compound) of 0.08 °C. The ΔTm (nsp14–nsp10; 25 µM compound) was -0.57 °C, the ΔTm (nsp14–nsp10; 50 µM compound) was 0.23 °C and the ΔTm (nsp14–nsp10; 100 µM compound) was 0.46 °C. For the same compound, the “MTase inhibition” value [3] was “demonstrated MTase inhibition activity; also recorded: most potent compound”.

For `O=C(O)CN(CCOCCOCCN(CC(=O)O)CC(=O)O)CC(=O)O` [EGTA, ethylene glycol-bis (b-aminoethyl ether)-N,N,N’,N’-tetraacetic acid, reference compound], the “effect on RNase activity of nsp14–nsp10” value [4, 6] was “inhibitory”.

In the case of `Cc1ccc(-n2sc3ccccc3c2=O)cc1` [PBIT, reference compound], the IC50 value [1] is reported as “IC50 not reached under assay conditions”.

Work on `CCN(CC)C(=S)SSC(=S)N(CC)CC` [disulfiram, reference compound] yielded a ΔTm (nsp14–nsp10; 3.1 µM compound) of -0.53 °C, a ΔTm (nsp14–nsp10; 6.3 µM compound) of -0.58 °C and a ΔTm (nsp14–nsp10; 12.5 µM compound) of -0.13 °C. It also gave a ΔTm (nsp14–nsp10; 25 µM compound) of -0.42 °C, a ΔTm (nsp14–nsp10; 50 µM compound) of -0.40 °C and a ΔTm (nsp14–nsp10; 100 µM compound) of 0.33 °C.

In the case of `O=c1c2ccccc2[se]n1-c1ccccc1` [ebselen, reference compound], the Level of inhibition [1] is listed as “Yes”, the “antiviral activity in cell-based assays” value (SARS-CoV-2) is listed as “exhibited antiviral activity in cell-based assays” and the “inhibition of nuclease activity” value [2] is listed as “inhibition was still observed, albeit at higher inhibitor concentrations”. For the same compound, the “MTase inhibition” value [3] was “demonstrated MTase inhibition activity”.

In the case of `[Mg]` [magnesium], the “effect on RNase activity of nsp14–nsp10” value [4, 6] is reported as “promoted the RNase activity”.

For `[Mn+2]` [manganese], the “effect on RNase activity of nsp14–nsp10” value [4] was “promoted the RNase activity”.

For `c1cnc2c(c1)ccc1cccnc12` [o-phenanthroline, reference compound], the “effect on RNase activity of nsp14–nsp10” value [4, 6] was “inhibitory”.

In the case of `Cc1nnc(C(=O)NC(C)(C)c2nc(C(=O)NCc3ccc(F)cc3)c(O)c(=O)n2C)o1` [raltegravir, reference compound], the IC50 [1] is listed as 24.4 ± 2.7 µM and the “antiviral activity in cell-based assays” value (SARS-CoV-2) is listed as “did not”.

With `CN(C)C(=S)SSC(=S)N(C)C` [thiram, reference compound] the IC50 [1] was 48.2 ± 1.8 µM, the Level of inhibition [1, 5] was “Yes” and the ΔTm (nsp14–nsp10; 3.1 µM compound) was -0.53 °C. It also gave a ΔTm (nsp14–nsp10; 6.3 µM compound) of -0.46 °C, a ΔTm (nsp14–nsp10; 12.5 µM compound) of -0.22 °C and a ΔTm (nsp14–nsp10; 25 µM compound) of -0.42 °C. The ΔTm (nsp14–nsp10; 50 µM compound) was -0.43 °C and the ΔTm (nsp14–nsp10; 100 µM compound) was -0.21 °C.

With `[Cl-].[Cl-].[Zn+2]` [zinc] the “effect on RNase activity of nsp14–nsp10” value [4] was “inhibitory”.
